The term melting point denotes the temperature of the solid-liquid transition.

The structures appear in SMILES notation.

`O=c1cc(CCl)nc2ccc(Br)cn12` showed a melting point of 172 to 174 °C.

Regarding `CN1CCC(=O)Nc2cc(Cl)ccc21`, the melting point was in the range of 138 to 140 °C. In turn, `NS(=O)(=O)c1ccccn1` displayed a melting point of 141 to 143 °C. Consider `NC(=O)c1ccc(NCc2ccccc2)c(N)c1`, for which the melting point lay in the range of 169 to 171 °C. Turning to `CC(C)CC(=O)NCCc1ccc(S(N)(=O)=O)s1`, the melting point lay within 113 to 115 °C. The compound `CCOc1cc(C(=O)O)ccc1OCC(=O)N1CCCCC1` returned a melting point of 129 to 131 °C. `O=C(O)C1CC1c1cc(Cl)cc(Cl)c1` (stereo not drawn) had a melting point of 134 to 136 °C. The compound `COc1cc(C#N)ccc1OC(F)F` yielded a melting point of 47 to 51 °C.

For `Cc1ccc(C)c(NC(=S)NN)c1`, the melting point fell in the range of 162 to 164 °C.

In turn, `Cc1csc(=O)n1CCC(=O)O` returned a melting point of 108 to 110 °C. With `NC(=O)c1sc2cc(Cl)ccc2c1Cl` the figure was 269 to 271 °C. In turn, `NC1CCN(C2CCOCC2)C1=O` (stereo not drawn) displayed a melting point of 50 to 52 °C. In the case of `Nc1ccc(OCc2cccnc2)cc1`, the melting point lay within 79 to 81 °C. Consider `c1nnc(C2CCCNC2)[nH]1` (stereo not drawn), for which the melting point was in the range of 149 to 151 °C.

`CCOC(=O)c1c(CCCO)cnc2c(C#N)cnn12` gave a melting point of 94 to 96 °C.

Turning to `CS(=O)(=O)c1ccc(NN)cc1`, the melting point lay in the range of 132 to 134 °C. Consider `Cc1cc2c(c(C)c1Cl)C(=O)CCO2`, for which the melting point fell in the range of 67 to 69 °C. In turn, `O=Cc1cn2cccc(F)c2n1` had a melting point of 163 to 165 °C.

On to `COC(=O)C(=O)CC(=O)c1ccccc1`, for which the melting point lay within 58 to 60 °C. For `NC(=O)Nc1cccc(C(=O)O)c1`, the melting point is 269 to 271 °C.

`COc1ccccc1-c1noc(CCl)n1` registered a melting point of 61 to 63 °C.

The compound `NC(=O)c1nc(Cl)ccc1N` returned a melting point of 164 to 166 °C. In turn, `CCOc1cc(C=O)ccc1OCc1c(F)cccc1Cl` returned a melting point of 111 to 113 °C. In turn, `CC(=O)c1ccc2c(c1)CC(=O)N2C` displayed a melting point of 176 to 178 °C. With `Nc1nc2c(s1)CNCC2` the figure was 176 to 178 °C. In the case of `Cc1cc(Br)cc(C)c1C(=O)O`, the melting point is 184 to 186 °C. Take `O=C(O)CC1(CC(=O)c2ccc(Cl)s2)CCCCC1`: the melting point was in the range of 102 to 104 °C. Next, `Nc1cccc(-n2c(O)c(O)n(C3CC3)c2=O)c1`: 164 to 166 °C; `O=C(O)C1CCC(=O)N(Cc2ccccc2)C1` (stereo not drawn): 154 to 156 °C. With `NC(=O)c1ccc(C(=O)O)cn1`, the melting point is 347 to 349 °C.

Turning to `N#Cc1ccc(Cn2cnc(N)n2)cc1`, the melting point lay in the range of 169 to 171 °C.

`CCN(CC)Cc1ccc(O)c2ncccc12`: the melting point lay within 60 to 62 °C. Next, `CC(C)(C)OC(=O)N1CC2NCCOC2C1` (stereo not drawn): 54 to 56 °C; `O=[N+]([O-])c1ccc(NC2CCCC2)cc1`: 86 to 88 °C. Regarding `O=C(O)c1ncoc1-c1ccccc1Cl`, the melting point lay within 194 to 196 °C. Compound `N#CCN(C(=O)c1ccccc1)C1CC1` gave a melting point of 103 to 105 °C.

The compound `O=C(O)C1CCCN1c1ncnc2sccc12` (stereo not drawn) registered a melting point of 211 to 213 °C. Next, `Nc1ccc2nc(NC(=O)CN3CCOCC3)sc2c1`: 228 to 230 °C; `Cc1ccc(OCc2nc(C=O)cs2)cc1`: 86 to 88 °C; `COC(=O)c1cc(CCl)c(C)s1`: 54 to 56 °C.

For `O=C1Nc2ccc(-c3ccccc3)cc2C1=O`, the melting point fell in the range of 214 to 216 °C. Compound `COC(=O)C(C)Nc1ccc([N+](=O)[O-])cc1` (stereo not drawn) came in with a melting point of 99 to 101 °C.

The compound `O=c1[nH]nnc2sc3c(c12)CCCC3` yielded a melting point of 185 to 187 °C.

In the case of `O=[N+]([O-])c1cc(S(=O)(=O)C(F)F)ccc1Cl`, the melting point was in the range of 71 to 73 °C.

`Nc1cc(S(N)(=O)=O)ccc1O` had a melting point of 199 to 201 °C. As to `CC(C)Oc1cccnc1C(=O)O`, the melting point was 199 to 201 °C.

Compound `Nc1ccc(S(=O)(=O)N2CCCC2)cc1` returned a melting point of 164 to 166 °C.

For `CCOC(=O)C1CCCN1S(N)(=O)=O` (stereo not drawn), the melting point lay within 123 to 125 °C. `CCOc1ccc(/C=C/C(=O)O)cc1OC` showed a melting point of 202 to 204 °C. With `Cc1cc2ccn(C)c2c(=O)[nH]1`, the melting point was in the range of 189 to 191 °C.

Compound `Cc1ccc(S(=O)(=O)N2CCCC2C(=O)O)cc1` (stereo not drawn) returned a melting point of 96 to 98 °C. Take `CCOC(=O)c1nc(C)oc1N`: the melting point lay in the range of 123 to 125 °C. As for `CC(=O)CC(=O)Nc1ccc(F)cc1`, the melting point lay within 101 to 103 °C. Regarding `O=C(Nc1cccc(O)c1)c1ccccc1`, the melting point was 171 to 173 °C.

For `Nc1ccccc1C(=O)NCc1ccco1`, the melting point is 76 to 78 °C. In turn, `CCC(=O)NC(C)C(=O)O` (stereo not drawn) returned a melting point of 89 to 91 °C.

The compound `Cc1ccc(S(=O)(=O)Cl)cc1S(=O)(=O)N1CCCCC1` displayed a melting point of 111 to 113 °C. With `COc1ccc2ncc(=O)[nH]c2c1` the figure was 179 to 181 °C; with `NS(=O)(=O)CCc1ccc([N+](=O)[O-])cc1`, 118 to 120 °C; with `CCOC(=O)c1nc(Cl)c2ccccc2n1`, 99 to 101 °C. Regarding `NC(=O)c1ccc(N)nn1`, the melting point was in the range of 256 to 258 °C.

For `Cc1ccc(S(=O)(=O)Cc2ccc(C(=O)O)cc2)cc1`, the melting point fell in the range of 281 to 283 °C. The compound `COc1c(F)cc(Br)cc1S(=O)(=O)Cl` displayed a melting point of 50 to 52 °C. For the compound `Cc1cc(C=O)c(C)n1-c1ccc2c(c1)OCCO2`, the melting point lay within 112 to 114 °C. Compound `N#CC(N)c1cccc(Cl)c1Cl` (stereo not drawn) came in with a melting point of 114 to 116 °C. With `Nc1n[nH]c2nc3ccccc3cc12`, the melting point fell in the range of 314 to 316 °C. In turn, `CN(C)c1cc(C#N)ccn1` yielded a melting point of 69 to 71 °C.

`Oc1ccc(C2=Nn3c(nnc3-c3ccc(Br)cc3)SC2)cc1O` had a melting point of 269 to 271 °C. With `COc1ccc(C(C)=O)cc1-c1ccccc1`, the melting point lay in the range of 91 to 93 °C.

The compound `CCCOc1ccc(C(=O)O)cc1N` displayed a melting point of 122 to 124 °C.

Compound `CC(C)CNC(=O)c1ccc(N)cc1` gave a melting point of 119 to 121 °C. For `Cc1cc(C(=O)O)cc(S(=O)(=O)Cl)c1Cl`, the melting point fell in the range of 209 to 211 °C. `O=C(O)CCCNC(=O)c1ccccc1` came in with a melting point of 87 to 89 °C. Turning to `CCc1c(C)sc2[nH]c(COCC(=O)O)nc(=O)c12`, the melting point was in the range of 193 to 195 °C. Consider `CC1C=C(C(=O)O)CC1` (stereo not drawn), for which the melting point lay within 33 to 35 °C.

`N#Cc1ccc(S(=O)(=O)N2CCCC2)cc1` came in with a melting point of 103 to 105 °C.

`CCCC(C)C(N)C(=O)O` (stereo not drawn): the melting point lay within 259 to 261 °C. In turn, `O=C(O)c1nc(NCCc2ccccc2)ncc1Cl` showed a melting point of 158 to 160 °C. With `CC(=O)c1sc(-c2ccccc2Br)nc1C`, the melting point fell in the range of 124 to 126 °C.

As for `CN(C)c1cccc(Cl)c1C=O`, the melting point was 26 to 28 °C. `COC(=O)c1cc(SC(=O)N(C)C)c(OC)cc1[N+](=O)[O-]` showed a melting point of 139 to 141 °C. With `Nc1cc(-c2cc(Br)ccc2Cl)[nH]n1`, the melting point was 158 to 160 °C.

In the case of `CCNC(=O)c1cccc(C)c1O`, the melting point lay within 64 to 66 °C.

Consider `Cn1cncc1C(N)=O`, for which the melting point lay within 178 to 180 °C. Consider `CCOC(=O)c1cccnc1SCC(=O)O`, for which the melting point is 109 to 111 °C.

The compound `O=C1CCCC(C(F)(F)F)N1` (stereo not drawn) had a melting point of 123 to 125 °C. With `COc1nc(Cl)c(C=O)s1`, the melting point is 43 to 45 °C. `O=C(O)CCCN1C(=S)CSC1=S`: the melting point lay within 122 to 124 °C. Next, `Cc1ccsc1C(=O)c1ccc(Cl)cc1F`: 39 to 41 °C; `CC(C)(C#N)NC(=O)c1ccccc1`: 166 to 168 °C; `Cc1cc(C)c(C(N)=O)c(Cl)n1`: 172 to 174 °C. With `Cc1c(C#N)c(NC(=O)CCl)n(Cc2ccc(F)cc2)c1C` the figure was 279 to 281 °C; with `O=C1NC(=O)N(Cc2cccs2)C1=O`, 170 to 172 °C; with `COc1ccc(CNC(=O)n2ccnc2)cc1OC`, 136 to 138 °C. With `COc1ccc(C(=O)O)c(Cl)c1` the figure was 209 to 211 °C; with `N#Cc1cc(N)ncc1Br`, 184 to 186 °C; with `Cc1cc(C#N)ccc1N1CC2CCC1C2` (stereo not drawn), 69 to 71 °C.

`COC(=O)c1c[nH]c2cccc(F)c12`: the melting point lay in the range of 159 to 161 °C. Consider `O=c1nc(S)[nH]nc1-c1cc(Cl)sc1Cl`, for which the melting point lay in the range of 203 to 205 °C. For the compound `CCOC(=O)c1cccnc1NC`, the melting point was in the range of 46 to 48 °C.

Take `NS(=O)(=O)c1ccc(NC(=O)C(=O)O)cc1`: the melting point fell in the range of 259 to 261 °C. `Cc1ccc(CN2CCOCC2)cc1N`: the melting point lay within 125 to 127 °C.

`Nc1ccc(CCN2CCCCC2)cc1` had a melting point of 54 to 56 °C. The compound `NC(=O)c1ccnc(F)c1` had a melting point of 175 to 177 °C. Take `N#CCc1c[nH]c2ncccc12`: the melting point was in the range of 139 to 141 °C. With `Cc1cc(C(=O)NN)c(C)o1` the figure was 132 to 134 °C. Next, `Cc1c(C(=O)C(=O)O)sc2ccccc12`: 156 to 158 °C; `Cn1cc(C=O)c(-c2ccc(C#N)cc2)n1`: 156 to 158 °C.

`N#Cc1ccc(N=C=O)cc1` had a melting point of 101 to 104 °C. `O=C(O)CNC(=O)NCc1ccco1` had a melting point of 159 to 161 °C. In turn, `Nc1ccc(C(=O)O)c(I)c1` showed a melting point of 160 to 162 °C. Turning to `NC(=S)C1CN(C(=O)OCc2ccccc2)CCO1` (stereo not drawn), the melting point lay within 147 to 149 °C. Next, `O=C(O)c1ccc(-n2cccc2)c(F)c1`: 252 to 254 °C. As for `NCc1ccc(-n2cncn2)cc1Cl`, the melting point was in the range of 111 to 113 °C. With `Cc1cc(C(=O)CCl)c(F)cc1F` the figure was 80 to 82 °C; with `O=S(=O)(Cl)Cc1ccc(F)cc1Br`, 45 to 47 °C. The compound `CC(Cl)C(=O)Nc1ccc(N2CCCC2=O)cc1` (stereo not drawn) gave a melting point of 194 to 196 °C. As for `Cc1cn2nc(N)c3ccccc3c2n1`, the melting point lay within 216 to 218 °C. Turning to `CS(=O)(=O)c1nc2ccccc2[nH]1`, the melting point is 188 to 192 °C. `Cc1cccc(Nc2nnc(SCC(=O)O)s2)c1C` registered a melting point of 159 to 161 °C. In the case of `Cc1sc2nc(CCl)[nH]c(=O)c2c1-c1ccccc1`, the melting point was in the range of 259 to 261 °C. Consider `Cc1ccc(NC2CCCCC2)nc1`, for which the melting point is 89 to 91 °C. In turn, `Cc1cc(C)c2nc(O)cc(C)c2c1` displayed a melting point of 261 to 263 °C.

The values above are taken from a melting point compilation (Tetko et al.).
